Measured values taken from US20150183781A1, “5-(1H-Pyrazol-4-yl)-1H-Pyrrolo[2,3-b]Pyridine Derivatives as Kinase Inhibitors” (AURIGENE DISCOVERY TECHNOLOGIES LIMITED, priority 2012, published 2015).
pIC50: −log10 of the molar value. Structures can show the parent of a compound that is named as a salt. Values belong to the compound of their own block, whether it stands above or below them.

Biological target: T1, recombinant human ALK enzyme (Homo sapiens, UniProt Q9UM73)
T1 construct: purchased Carna Biosciences 08-518
T1 sequence (Q9UM73 1058-1620 limits assumed): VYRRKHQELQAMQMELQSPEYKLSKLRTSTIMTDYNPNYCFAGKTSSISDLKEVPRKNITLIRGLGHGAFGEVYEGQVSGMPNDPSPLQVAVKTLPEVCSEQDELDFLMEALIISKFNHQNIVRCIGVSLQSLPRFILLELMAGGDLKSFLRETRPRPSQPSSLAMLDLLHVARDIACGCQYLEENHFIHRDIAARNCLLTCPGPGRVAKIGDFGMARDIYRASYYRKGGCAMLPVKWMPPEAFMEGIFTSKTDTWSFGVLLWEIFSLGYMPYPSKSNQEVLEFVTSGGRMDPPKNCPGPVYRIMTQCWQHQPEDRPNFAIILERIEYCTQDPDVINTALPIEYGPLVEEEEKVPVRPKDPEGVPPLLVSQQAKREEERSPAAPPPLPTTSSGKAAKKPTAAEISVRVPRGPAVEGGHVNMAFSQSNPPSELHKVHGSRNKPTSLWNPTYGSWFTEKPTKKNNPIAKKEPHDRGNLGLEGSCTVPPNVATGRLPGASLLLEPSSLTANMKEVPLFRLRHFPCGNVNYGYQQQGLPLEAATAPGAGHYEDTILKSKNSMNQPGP
Experiment: ALK WT cell free assay (TR-FRET)
Format: biochemical
Details: 1 μM ATP; for pIC50: 10 point dose response, read-out: IC50 value (in range); for inhibition at 1 µM: compound 1 μM, read-out: Percentage Inhibition 1 μM; for inhibition at 1 µM / inhibition at 0.1 µM: 30 min pre-incubation; for inhibition at 0.1 µM: compound 100 nM, read-out: Percentage Inhibition 100 nM
Experimental: The ALK WT cell free assay was set up to evaluate the effects of these compounds as inhibitors of ALK enzyme. The enzymatic assay was standardized using recombinant human ALK enzyme (Cat#08-518) from Carna Biosciences using Ultra Light Poly GT (Cat# TRF […]) from Perkin Elmer as a substrate. TR-FRET (Time resolved fluorescence resonance energy transfer) detection technology was used for the read out. […] The assay reaction time with the substrate was 30 minutes after which the antibody detection mix is added. The TR-FRET signal (Excitation at 340 nm, Emission at 615 nm and 665 nm) was read with 50 μs delay time on Victor^3 V fluorimeter. The data is calculated using the ratio of reading at 665 nm to 615 nm. […] Compounds were screened at 100 nM and 1 μM concentrations with pre-incubation of the enzymes with compound for 30 minutes.

SMILES: Cn1cc(-c2cnc3[nH]cc(-c4cnn(Cc5cc(F)cc(F)c5)c4)c3c2)cn1 [Example-14]
pIC50: > 7.30
inhibition at 1 µM: 100%

SMILES: Cc1nn(Cc2cccc(F)c2)c(C)c1-c1c[nH]c2ncc(-c3cnn(CCO)c3)cc12 [Example-29]
pIC50: > 7.30
inhibition at 0.1 µM: 73%
inhibition at 1 µM: 100%

SMILES: C[C@H](O)CN1CCC(n2cc(-c3cnc4[nH]cc(-c5cnn(Cc6cccc(F)c6)c5)c4c3)cn2)CC1 [Example-32, (S)-1-(4-(4-(3-(1-(3-fluorobenzyl)-1H-pyrazol-4-yl)-1H-pyrrolo[2,3-b]pyridin-5-yl)-1H-pyrazol-1-yl)piperidin-1-yl)propan-2-ol]
pIC50: > 7.30
inhibition at 0.1 µM: 90%
inhibition at 1 µM: 99%

SMILES: Cn1cc(-c2cnc3[nH]cc(-c4cn(Cc5cccc(F)c5)nc4C(F)(F)F)c3c2)cn1 [Example-17]
pIC50: 6.70 to 7.30
inhibition at 0.1 µM: 62%
inhibition at 1 µM: 89%

SMILES: Cc1nn(Cc2cccc(F)c2)c(C)c1-c1c[nH]c2ncc(-c3cnn(C)c3)cc12 [Example-18]
pIC50: > 7.30
inhibition at 0.1 µM: 79%
inhibition at 1 µM: 96%

SMILES: Cc1c(-c2c[nH]c3ncc(-c4cnn(C5CCNCC5)c4)cc23)cnn1Cc1cccc(F)c1 [Example-27]
pIC50: > 7.30
inhibition at 0.1 µM: 79%
inhibition at 1 µM: 98%

SMILES: Cc1nn(Cc2cccc(F)c2)cc1-c1c[nH]c2ncc(-c3cnn(C4CCNCC4)c3)cc12 [Example-26]
pIC50: > 7.30
inhibition at 0.1 µM: 79%
inhibition at 1 µM: 96%

SMILES: OCCn1cc(-c2cnc3[nH]cc(-c4cnn(Cc5cccc(F)c5)c4)c3c2)cn1 [Example-28, 2-(4-(3-(1-(3-fluorobenzyl)-1H-pyrazol-4-yl)-1H-pyrrolo[2,3-b]pyridin-5-yl)-1H-pyrazol-1-yl)ethanol]
pIC50: > 7.30
inhibition at 0.1 µM: 96%
inhibition at 1 µM: 98%

SMILES: Cn1cc(-c2cnc3[nH]cc(-c4cn(Cc5cccc(F)c5)nc4C(C)(C)C)c3c2)cn1 [Example-15]
inhibition at 0.1 µM: 6%
inhibition at 1 µM: 6%

SMILES: Cc1nn(Cc2cc(Cl)ccc2F)cc1-c1c[nH]c2ncc(-c3cnn(C)c3)cc12 [Example-7]
pIC50: < 6.70
inhibition at 0.1 µM: 45%
inhibition at 1 µM: 93%

SMILES: Cc1nn(Cc2cccc(F)c2)c(C)c1-c1c[nH]c2ncc(-c3cnn(C4CCNCC4)c3)cc12 [Example-24]
pIC50: > 7.30
inhibition at 0.1 µM: 76%
inhibition at 1 µM: 94%

SMILES: Fc1cccc(Cn2cc(-c3c[nH]c4ncc(-c5cnn(C6CCNCC6)c5)cc34)cn2)c1 [Example-23]
pIC50: > 7.30
inhibition at 0.1 µM: 80%
inhibition at 1 µM: 94%

SMILES: Fc1cc(F)cc(Cn2cc(-c3c[nH]c4ncc(-c5cnn(C6CCNCC6)c5)cc34)cn2)c1 [Example-22, 3-(1-(3,5-difluorobenzyl)-1H-pyrazol-4-yl)-5-(1-(piperidin-4-yl)-1H-pyrazol-4yl)-1H-pyrrolo[2,3-b]pyridinehydrochloride]
pIC50: > 7.30
inhibition at 0.1 µM: 97%
inhibition at 1 µM: 100%

SMILES: OCCCn1cc(-c2cnc3[nH]cc(-c4cnn(Cc5cccc(F)c5)c4)c3c2)cn1 [Example-30]
pIC50: > 7.30
inhibition at 0.1 µM: 88%
inhibition at 1 µM: 99%

SMILES: Cc1nn(Cc2cc(F)cc(F)c2)c(C)c1-c1c[nH]c2ncc(-c3cnn(C)c3)cc12 [Example-19]
pIC50: > 7.30
inhibition at 0.1 µM: 80%
inhibition at 1 µM: 96%

SMILES: Cc1nn(Cc2cccc(O)c2)c(C)c1-c1c[nH]c2ncc(-c3cnn(C4CCNCC4)c3)cc12 [Example-25]
pIC50: 6.70 to 7.30
inhibition at 0.1 µM: 70%
inhibition at 1 µM: 95%

SMILES: Cn1cc(-c2cnc3[nH]cc(-c4cnn(Cc5cc(F)ccc5F)c4)c3c2)cn1 [Example-10]
pIC50: > 7.30
inhibition at 1 µM: 98%

Next, values leading:

pIC50: > 7.30
inhibition at 1 µM: 96%
SMILES: Cn1cc(-c2cnc3[nH]cc(-c4cnn(Cc5cccc(Cl)c5)c4)c3c2)cn1 [Example-13]

inhibition at 1 µM: 42%
SMILES: COC(=O)c1cccc(Cn2cc(-c3c[nH]c4ncc(-c5cnn(C)c5)cc34)cn2)c1 [Example-6]

pIC50: > 7.30
inhibition at 1 µM: 95%
SMILES: Cn1cc(-c2cnc3[nH]cc(-c4cnn(Cc5cccc(C#N)c5)c4)c3c2)cn1 [Example-5]

pIC50: > 7.30
inhibition at 0.1 µM: 81%
inhibition at 1 µM: 99%
SMILES: Cn1cc(-c2cnc3[nH]cc(-c4cnn(Cc5cccc(O)c5)c4)c3c2)cn1 [Example-20]

inhibition at 1 µM: 21%
SMILES: Cn1cc(-c2cnc3[nH]cc(-c4cnn(Cc5ccc(C(C)(C)C)cc5)c4)c3c2)cn1 [Example-9, 3-(1-(4-(tert-butyl)benzyl)-1H-pyrazol-4-yl)-5-(1-methyl-1H-pyrazol-4-yl)-1H-pyrrolo[2,3-b]pyridine]

pIC50: < 6.70
inhibition at 1 µM: 77%
SMILES: Cn1cc(-c2cnc3[nH]cc(-c4cnn(Cc5cccc(C(F)(F)F)c5)c4)c3c2)cn1 [Example-11]

pIC50: 6.70 to 7.30
inhibition at 0.1 µM: 59%
inhibition at 1 µM: 95%
SMILES: c1ccc(CCn2cc(-c3c[nH]c4ncc(-c5cnn(C6CCNCC6)c5)cc34)cn2)cc1 [Example-31, 3-(1-phenethyl-1H-pyrazol-4-yl)-5-(1-(piperidin-4-yl)-1H-pyrazol-4-yl)-1H-pyrrolo[2,3-b]pyridine]

pIC50: 6.70 to 7.30
inhibition at 1 µM: 98%
SMILES: Cn1cc(-c2cnc3[nH]cc(-c4cnn(Cc5ccccc5)c4)c3c2)cn1 [Example-8]

inhibition at 1 µM: 90%
SMILES: Cn1cc(-c2cnc3[nH]cc(-c4cnn(Cc5cccc(N)c5)c4)c3c2)cn1 [Example-21, 3-((4-(5-(1-methyl-1H-pyrazol-4-yl)-1H-pyrrolo[2,3-b]pyridin-3-yl)-1H-pyrazol-1-yl)methyl)aniline]

pIC50: > 7.30
inhibition at 1 µM: 100%
SMILES: Cn1cc(-c2cnc3[nH]cc(-c4cnn(Cc5cccc(F)c5)c4)c3c2)cn1 [Example-3]

pIC50: 6.70 to 7.30
inhibition at 0.1 µM: 53%
inhibition at 1 µM: 92%
SMILES: Cn1cc(-c2cnc3[nH]cc(-c4cnn(CCc5ccccc5)c4)c3c2)cn1 [Example-20A]

pIC50: 6.70 to 7.30
inhibition at 0.1 µM: 49%
inhibition at 1 µM: 92%
SMILES: Cn1cc(-c2cnc3[nH]cc(-c4cnn(Cc5cccc([N+](=O)[O-])c5)c4)c3c2)cn1 [Example-16, 5-(1-methyl-1H-pyrazol-4-yl)-3-(1-(3-nitrobenzyl)-1H-pyrazol-4-yl)-1H-pyrrolo[2,3-b]pyridine]

pIC50: 6.70 to 7.30
inhibition at 1 µM: 93%
SMILES: Cn1cc(-c2cnc3[nH]cc(-c4cnn(Cc5ccc(F)cc5)c4)c3c2)cn1 [Example-4]

pIC50: 6.70 to 7.30
inhibition at 1 µM: 95%
SMILES: Cn1cc(-c2cnc3[nH]cc(-c4cnn(Cc5ccccc5F)c4)c3c2)cn1 [Example-1, 3-(1-(2-fluorobenzyl)-1H-pyrazol-4-yl)-5-(1-methyl-1H-pyrazol-4-yl)-1H-pyrrolo[2,3-b]pyridine]
